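Abbreviation: GI50, concentration required for 50% inhibition of growth. The concentration for full growth arrest is given as TGI.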
What was measured:
Assay in all cases: NCI anticancer screen, dose series, 384-well format
RPMI-8226 leukemia = tested on: RPMI-8226 leukemia
CAKI-1 renal = tested on: CAKI-1 renal
U251 glioblastoma = tested on: U251 glioblastoma
COLO 205 colon = tested on: COLO 205 colon
NCI-H460 NSCLC = tested on: NCI-H460 NSCLC
PC-3 prostate = tested on: PC-3 prostate
SW-620 colon = tested on: SW-620 colon
IGROV1 ovarian = tested on: IGROV1 ovarian
MDA-MB-468 breast = tested on: MDA-MB-468 breast
BT-549 breast = tested on: BT-549 breast
LOX IMVI melanoma = tested on: LOX IMVI melanoma
MCF7 breast = tested on: MCF7 breast
KM12 colon = tested on: KM12 colon
HT29 colon = tested on: HT29 colon
SF-268 CNS = tested on: SF-268 CNS
UO-31 renal = tested on: UO-31 renal
SN12C renal = tested on: SN12C renal
MALME-3M melanoma = tested on: MALME-3M melanoma
NCI/ADR-RES ovarian = tested on: NCI/ADR-RES ovarian
UACC-257 melanoma = tested on: UACC-257 melanoma
EKVX NSCLC = tested on: EKVX NSCLC
SNB-19 CNS = tested on: SNB-19 CNS
T-47D breast = tested on: T-47D breast
SNB-75 CNS = tested on: SNB-75 CNS
MDA-MB-231 breast = tested on: MDA-MB-231 breast
OVCAR-5 ovarian = tested on: OVCAR-5 ovarian
NCI-H522 lung = tested on: NCI-H522 lung
NCI-H226 lung = tested on: NCI-H226 lung
A549 NSCLC = tested on: A549 NSCLC
HCT-15 colon = tested on: HCT-15 colon
HS 578T breast = tested on: HS 578T breast
MOLT-4 leukemia = tested on: MOLT-4 leukemia
SK-MEL-5 melanoma = tested on: SK-MEL-5 melanoma
RXF 393 renal = tested on: RXF 393 renal
HL-60(TB) leukemia = tested on: HL-60(TB) leukemia
SK-OV-3 ovarian = tested on: SK-OV-3 ovarian
SK-MEL-28 melanoma = tested on: SK-MEL-28 melanoma
HCC-2998 colon = tested on: HCC-2998 colon
K-562 leukemia = tested on: K-562 leukemia
NCI-H322M lung = tested on: NCI-H322M lung
A498 renal = tested on: A498 renal
MDA-MB-435 melanoma = tested on: MDA-MB-435 melanoma
SR leukemia = tested on: SR leukemia
HCT-116 colon = tested on: HCT-116 colon
OVCAR-3 ovarian = tested on: OVCAR-3 ovarian
SF-539 CNS = tested on: SF-539 CNS

For `COc1cccc(OCCCN)c1-c1cc(Nc2cnc(C#N)cn2)n[nH]1`, which TGI (RPMI-8226 leukemia) is on record?
The TGI was 0.0278 µM.

What about the GI50 (CAKI-1 renal) of the same compound?
The GI50 was 0.0354 µM.

And the TGI (CAKI-1 renal)?
The TGI was 2.62 µM.

And the GI50 (U251 glioblastoma)?
Its GI50 is 0.0255 µM.

And the TGI (U251 glioblastoma)?
The TGI was 11.9 µM.

What about the GI50 (COLO 205 colon) of the same compound?
Its GI50 is 0.0169 µM.

What about the TGI (COLO 205 colon) of the same compound?
Its TGI is 0.133 µM.

What about the GI50 (NCI-H460 NSCLC) of the same compound?
The GI50 was 0.0209 µM.

And the TGI (NCI-H460 NSCLC)?
The TGI was 0.121 µM.

What about the GI50 (PC-3 prostate) of the same compound?
The GI50 was 0.0559 µM.

What about the TGI (PC-3 prostate) of the same compound?
The TGI was 13.2 µM.

And the GI50 (SW-620 colon)?
Its GI50 is 0.0715 µM.

And the TGI (SW-620 colon)?
Its TGI is 2.29 µM.

And the TGI (IGROV1 ovarian)?
Its TGI is 1.27 µM.

And the TGI (MDA-MB-468 breast)?
The TGI was 0.0116 µM.

And the TGI (BT-549 breast)?
Its TGI is 0.0242 µM.

What about the GI50 (LOX IMVI melanoma) of the same compound?
Its GI50 is 0.0234 µM.

What about the TGI (LOX IMVI melanoma) of the same compound?
Its TGI is 0.847 µM.

What about the TGI (MCF7 breast) of the same compound?
The TGI was 13.3 µM.

And the TGI (KM12 colon)?
Its TGI is 0.0867 µM.

What about the GI50 (HT29 colon) of the same compound?
Its GI50 is 0.0199 µM.

What about the TGI (HT29 colon) of the same compound?
Its TGI is 0.145 µM.

What about the GI50 (SF-268 CNS) of the same compound?
Its GI50 is 0.0249 µM.

And the TGI (SF-268 CNS)?
Its TGI is 6.59 µM.

And the TGI (UO-31 renal)?
The TGI was 16.3 µM.

And the GI50 (SN12C renal)?
The GI50 was 0.0396 µM.

What about the TGI (SN12C renal) of the same compound?
The TGI was 0.761 µM.

And the TGI (MALME-3M melanoma)?
The TGI was 0.0349 µM.

What about the GI50 (NCI/ADR-RES ovarian) of the same compound?
Its GI50 is 0.016 µM.

And the TGI (NCI/ADR-RES ovarian)?
Its TGI is 0.0596 µM.

What about the GI50 (UACC-257 melanoma) of the same compound?
The GI50 was 0.0181 µM.

And the TGI (UACC-257 melanoma)?
The TGI was 0.0814 µM.

What about the TGI (EKVX NSCLC) of the same compound?
Its TGI is 12.7 µM.

What about the TGI (SNB-19 CNS) of the same compound?
Its TGI is 0.122 µM.

What about the GI50 (T-47D breast) of the same compound?
Its GI50 is 1.83 µM.

What about the TGI (T-47D breast) of the same compound?
The TGI was 18.3 µM.

And the GI50 (SNB-75 CNS)?
Its GI50 is 0.0171 µM.

What about the TGI (SNB-75 CNS) of the same compound?
The TGI was 0.49 µM.

What about the GI50 (MDA-MB-231 breast) of the same compound?
The GI50 was 0.0353 µM.

What about the TGI (MDA-MB-231 breast) of the same compound?
The TGI was 5.25 µM.

What about the TGI (OVCAR-5 ovarian) of the same compound?
The TGI was 0.017 µM.

And the GI50 (NCI-H522 lung)?
Its GI50 is 0.0352 µM.

And the TGI (NCI-H522 lung)?
Its TGI is 0.833 µM.

What about the GI50 (NCI-H226 lung) of the same compound?
Its GI50 is 5.36 µM.

What about the TGI (NCI-H226 lung) of the same compound?
Its TGI is 18.8 µM.

And the TGI (A549 NSCLC)?
The TGI was 14.2 µM.

And the GI50 (HCT-15 colon)?
The GI50 was 0.0121 µM.

What about the TGI (HCT-15 colon) of the same compound?
Its TGI is 0.0288 µM.

What does the source list for `Cc1c(F)c(N)c2c(=O)cc(-c3ccc(N)c(F)c3)oc2c1F`?
GI50 (RPMI-8226 leukemia): 14.2 µM; TGI (RPMI-8226 leukemia): > 100 µM; GI50 (CAKI-1 renal): < 0.01 µM; TGI (CAKI-1 renal): > 100 µM; GI50 (HS 578T breast): 10.7 µM; TGI (HS 578T breast): 29.5 µM; GI50 (U251 glioblastoma): 18 µM; TGI (U251 glioblastoma): > 100 µM; GI50 (MOLT-4 leukemia): 85.1 µM; TGI (MOLT-4 leukemia): > 100 µM; GI50 (SK-MEL-5 melanoma): < 0.01 µM; TGI (SK-MEL-5 melanoma): > 100 µM; GI50 (RXF 393 renal): 10.5 µM; TGI (RXF 393 renal): 31.5 µM; GI50 (HL-60(TB) leukemia): 0.157 µM; TGI (HL-60(TB) leukemia): > 100 µM; GI50 (NCI-H460 NSCLC): < 0.01 µM; TGI (NCI-H460 NSCLC): > 100 µM; GI50 (PC-3 prostate): > 100 µM; TGI (PC-3 prostate): > 100 µM; GI50 (SW-620 colon): > 100 µM; TGI (SW-620 colon): > 100 µM; GI50 (SK-OV-3 ovarian): 29.3 µM; TGI (SK-OV-3 ovarian): > 100 µM; GI50 (SK-MEL-28 melanoma): > 100 µM; TGI (SK-MEL-28 melanoma): > 100 µM; GI50 (IGROV1 ovarian): < 0.01 µM; GI50 (MDA-MB-468 breast): < 0.01 µM; GI50 (HCC-2998 colon): < 0.01 µM; TGI (HCC-2998 colon): > 100 µM; GI50 (BT-549 breast): 16.4 µM; TGI (BT-549 breast): 40.4 µM; GI50 (LOX IMVI melanoma): > 100 µM; TGI (LOX IMVI melanoma): > 100 µM; GI50 (K-562 leukemia): 1.75 µM; GI50 (NCI-H322M lung): 24.3 µM; TGI (NCI-H322M lung): > 100 µM; GI50 (MCF7 breast): < 0.01 µM; TGI (MCF7 breast): 0.0338 µM; GI50 (KM12 colon): 93 µM; TGI (KM12 colon): > 100 µM; GI50 (HT29 colon): > 100 µM; TGI (HT29 colon): > 100 µM; GI50 (A498 renal): < 0.01 µM; TGI (A498 renal): 0.13 µM; GI50 (MDA-MB-435 melanoma): 34.9 µM; TGI (MDA-MB-435 melanoma): > 100 µM; GI50 (SF-268 CNS): 23.2 µM; TGI (SF-268 CNS): 97.6 µM; GI50 (MALME-3M melanoma): 28.6 µM; TGI (MALME-3M melanoma): 86.5 µM; GI50 (NCI/ADR-RES ovarian): 14.1 µM; TGI (NCI/ADR-RES ovarian): > 100 µM; GI50 (EKVX NSCLC): 2.98 µM; TGI (EKVX NSCLC): > 100 µM; GI50 (SNB-75 CNS): 10.8 µM; TGI (SNB-75 CNS): 25.2 µM; GI50 (MDA-MB-231 breast): 26.7 µM; TGI (MDA-MB-231 breast): > 100 µM; GI50 (OVCAR-5 ovarian): < 0.01 µM; GI50 (NCI-H522 lung): 9.4 µM; TGI (NCI-H522 lung): 43.1 µM; GI50 (SR leukemia): 4.12 µM; TGI (SR leukemia): > 100 µM; GI50 (NCI-H226 lung): < 0.01 µM; GI50 (A549 NSCLC): 29.9 µM; TGI (A549 NSCLC): > 100 µM; GI50 (HCT-15 colon): > 100 µM; TGI (HCT-15 colon): > 100 µM; GI50 (HCT-116 colon): 28 µM; TGI (HCT-116 colon): > 100 µM; GI50 (OVCAR-3 ovarian): 0.0251 µM; TGI (OVCAR-3 ovarian): 37.9 µM; GI50 (SF-539 CNS): 28 µM; TGI (SF-539 CNS): > 100 µM

From PubChem BioAssay (NCI)
